Like-named read-outs stand apart in the source and are kept apart here.
What was measured:
[1] = tested on: HRE-luciferase reporter (HT22 hippocampal cell line); assay: HRE-luc reporter assay; format: cell-based; settings: for fold induction at 10 µM: Mus musculus, HT-22, 3 h, read-out: HRE-luc fold activation
Description: A promoter-reporter construct that contained 68 bp of a known hypoxia and HIF-1 regulated gene, enolase, containing a wild type hypoxia response element (HRE, 5’-RCTGT-3’), is a widely used approach for screening for HIF activators of different mechanism of action. A cell-based assay with HRE-luciferase reporter system is based on transfected immortalized hippocampal cell line (HT22) and allows screening for a broad spectrum of compounds that include: activators of HIF transcription; activators of HIF binding to HRE; and effectors of HIF protein stability (PHD inhibitors, pVHL & proteasome inhibitors). The assay was performed the same way as for HIF ODD-luc reporter except the cells were plated at the density of 10,000 cell per well and incubated overnight.

[2] = Iron binding constant, calcein displacement assay; format: physicochemical; settings: calcein displacement
Description: Calcein displacement assay in the presence of varied concentrations of flavonoids and catechols has been used. Calcein release from its complex with iron was monitored by fluorescence as described in [26].

[3] = tested on: HIF1 ODD-luc reporter (SH-SY5Y cell line); assay: HIF1 ODD-luc reporter assay; format: cell-based; settings: for fold induction at 10 µM: 3 h, 3 h incubation, read-out: ODD-luc fold activation
Description: (§1) SH-SY5Y cell lines stably expressing HIF1 ODD-luc or Neh2-luc reporters were grown in the DMEM/F12 supplemented with GlutaMAX (Thermo Fisher Scientific) containing 10% FBS, 100 U/ml penicillin, and 100 μg/ml streptomycin and plated into 384-well white flat-bottom plates at 7,000 cell/well in 30 µl serum and incubated overnight at 37°C, 5% CO2. The next day compounds were added to a final concentration of 10 µM and the plates were incubated for 3 hours at 37°C. Reporter activation after 3 h incubation with the studied compound was compared to that for ciclopirox (HIF1 ODD-luc reporter) or TBHQ (Neh2-luc reporter), taken as 100%. Luciferase reporter activity was measured with a SteadyGlo reagent from Promega providing stable reading for 1 h.
(§2) Cells were plated at the density of 25,000 cell per well using a WellMate multichannel dispenser from Matrix (Thermo Fisher Scientific, Waltham, MA) and grown overnight on DMEM/F12+GlutaMAX (100 µl per well). Then an inhibitor was added, and the plates were incubated for a fixed time interval; the medium was removed, cells lysed, and luciferase activity was measured on a SpectraMax M5e platereader (Molecular Devices, Sunnyvale, CA) with BrightGlo™ reagent (Promega, Madison, WI). The reporter activation was normalized to the background luminescence. The effect of 0.5 mM N-acetylcysteine (NAC) was studied by simultaneous addition of 5 µL of 10 mM stock of NAC in water and 2 µL of 50x stock solutions of a flavonoid in DMSO.

[4] = tested on: Neh2-luc reporter (SH-SY5Y cell line); assay: Neh2-luc reporter assay; format: cell-based; settings: for EC50 / fold induction at 10 µM: Homo sapiens, SH-SY5Y; for EC50: Neh2-luc; for fold induction at 10 µM: read-out: Neh2-luc fold activation; for effect of NAC on Neh2-luc reporter activation: simultaneous addition of 0.5 mM NAC, results not shown
Description: as §1, §2

HIF prolyl hydroxylase = molecular target: HIF prolyl hydroxylase; design: method as in PMID 3011801; settings: enzyme in vitro assay; read-out: enzyme inhibition constant; cited from earlier work
[5] = design: method as in PMID 17112238; settings: cited from earlier work
[6] = molecular target: T1, Rabbit Reticulocyte 15-LOX-1 (Oryctolagus cuniculus, UniProt P12530); assay: Rabbit LOX 12/15 (rabbit reticulocyte 15-LOX-1) activity; format: biochemical; settings: compounds at 25 µM, Fig. 4A
T1 sequence (P12530 1-663): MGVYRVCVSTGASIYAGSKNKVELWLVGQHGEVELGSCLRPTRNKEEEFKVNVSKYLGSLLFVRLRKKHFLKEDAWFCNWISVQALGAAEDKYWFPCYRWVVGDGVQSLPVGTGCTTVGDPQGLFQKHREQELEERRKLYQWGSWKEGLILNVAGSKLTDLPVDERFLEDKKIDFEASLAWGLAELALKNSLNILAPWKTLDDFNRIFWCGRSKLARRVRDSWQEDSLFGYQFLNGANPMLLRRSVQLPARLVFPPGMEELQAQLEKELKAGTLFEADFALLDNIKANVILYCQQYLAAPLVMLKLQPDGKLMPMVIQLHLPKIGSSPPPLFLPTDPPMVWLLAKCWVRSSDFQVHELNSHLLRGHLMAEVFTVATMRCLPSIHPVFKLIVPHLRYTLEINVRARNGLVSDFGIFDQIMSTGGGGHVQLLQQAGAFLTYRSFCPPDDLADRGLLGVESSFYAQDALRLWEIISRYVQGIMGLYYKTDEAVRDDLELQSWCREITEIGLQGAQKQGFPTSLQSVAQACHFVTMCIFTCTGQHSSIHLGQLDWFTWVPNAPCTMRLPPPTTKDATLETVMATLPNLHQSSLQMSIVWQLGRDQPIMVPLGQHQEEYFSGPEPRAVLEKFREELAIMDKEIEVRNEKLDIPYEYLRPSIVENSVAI
Description: The activity of the purified enzyme was measured in the end-point in vitro assay of arachidonic acid oxidation following the formation of fluorescent diphenyl-1-pyrenylphosphine oxide. DMSO was used as a control.

[7] = tested on: primary neuronal cultures treated with 5 mM HCA; assay: Glutathione depletion (HCA) model, MTT viability; format: cell-based, rat; settings: glutathione depletion model, Fig. 5
Description: Primary neuronal cultures were prepared from the forebrains of Sprague-Dawley rat embryos (E17) and plated on 96 well plates at a 10^6 cells/ml density. After 24 hours, cells were rinsed with warm PBS and then placed in minimum Essential Medium (MEM; Life Technologies, Grand Island, NY) containing 5 mM HCA in the presence of a compound of interest at varied concentrations. Cells were incubated for 24 h or longer to see 90% cell death in HCA treated controls. Viability was assessed by the MTT (4,5-dimethylthiazol-2-yl)-2,5-diphenyltetrazolium bromide) assay.

[8] = Non-enzymatic ferricyanide reduction rate constant; format: physicochemical; settings: 1 mM ferricyanide, pH 7.0
Description: The rate of ferricyanide reduction by individual flavonoids was measured spectrophotometrically at 420 nm with the fixed concentration of ferricyanide (1 mM) and varied concentrations of a flavonoid in Potassium-phosphate buffer, pH 7.0. The rate constant for direct ferricyanide reduction was calculated from the slope of the dependence reaction rate vs flavonoid concentration and used as a measure of flavonoid non-specific reducing power.

HIF PHD2 = settings: read-out: HIF PHD2 apparent inhibition constant; cited from earlier work
[9] = tested on: rotenone-induced hemiparkinsonian rats; design: method as in PMID 23357119; settings: 25-75 mg/kg twice a day for 4 days; cited from earlier work

| Structure (SMILES) | HRE-luc: concentration above which active [1] | Iron complex Diss. Const [2] [µM] | ODD-luc: concentration above which active [3] | ODD-luc: concentration above which active ([3]; listed as DHB) | EC50 [4] [µM] | Neh2-luc fold activation ([4]; at 10 µM, 3 h incubation) | Ki (HIF prolyl hydroxylase) [µM] | fold induction at 10 µM [1] | EHOMO [5] [eV] | fold induction at 10 µM ([3]; Homo sapiens, SH-SY5Y) | fold induction at 10 µM ([4]; at 10 µM, 3 h incubation) | effect of NAC on Neh2-luc reporter activation [4] | LOX inhibition [6] | concentration at which neuroprotection begins [7] [µM] | FC red Rate Const [8] [M⁻¹ s⁻¹] | EC50 ([3]; Homo sapiens, SH-SY5Y) [µM] | Ki (HIF PHD2) [µM] | neuroprotection in rotenone model [9] |
| --- | --- | --- | --- | --- | --- | --- | --- | --- | --- | --- | --- | --- | --- | --- | --- | --- | --- | --- |
| CCOC(=O)c1ccc(O)c(O)c1 [compound 32, Ethyl 3,4-dihydroxybenzoate, reference compound] | Active above 20 µM | 2.5 ± 0.3 | Active above 50 µM | above 50 µM | 20 | Inactive | 5 | – | – | – | – | – | – | – | – | – | – | – |
| O=c1c(O)c(-c2ccc(O)c(O)c2)oc2cc(O)ccc12 [compound 10, Fisetin] | – | 2.7 ± 0.3 | – | – | 2 | – | – | 2 ± 0.2 | -8.69 | 1.6 ± 0.2 | 23 ± 3 | no effect | equipotent as LOX inhibitors | 2.5 | 301000 ± 34000 | – | – | – |
| O=c1c(O)c(-c2ccc(O)c(O)c2)oc2cc(O)cc(O)c12 [compound 11, Quercetin] | – | 2.7 ± 0.3 | – | – | 2 | – | – | 2 ± 0.2 | -8.72 | 1.5 ± 0.2 | 24 ± 3 | no effect | – | – | 366000 ± 39000 | ~2.5 | 10 | neuroprotective |
